Measured values: patent publication US20090076067A1, “PHARMACEUTICAL COMPOSITION COMPRISING AZARHODACYANINE COMPOUND AS ACTIVE INGREDIENT” (priority 2005, published 2009)
Like-named read-outs stand apart in the source and are kept apart here.

What was measured:
[1] = system: Trypanosoma brucei rhodensiense (STIB 900 strain); experiment: African trypanosoma protozoa proliferation inhibition screening test; format: cell-based; conditions: for Selective toxicity: EC50 rat L6 cells / EC50 African trypanosoma protozoa; for EC50: Trypanosoma brucei, STIB900, read-out: EC50 Trypanosoma brucei rhod.; for EC50 / EC50 Trypanosoma brucei rhod.: STIB 900 bloodstream form, 72 hours, Alamar blue
Protocol: In this experiment, bloodstream form trypomastigote of Trypanosoma brucei rhodensiense (STIB 900 strain) was used. The medium used in the experiment was prepared as follows: to filter-sterilized MEM medium, 25 mM N-2-hydroxyethylpiperazine-2-ethane sulfonate (HEPES), 1 g/L glucose, 1% MEM nonessential amino acid, 0.2 mM 2-mercaptoethanol, 2 mM pyruvic calcium salt, 0.1 mM hypoxanthine, and 15% heat-treated horse serum were added. The protozoa was cultured under atmosphere of CO2 concentration 5% and temperature 37° C.
Either the compound of the invention or a positive control (melarsoprol) was dissolved into dimethylsulfoxide (DMSO) to prepare test solution having predefined concentration. To each well in a 96-well culture plate, medium containing 8×10^3 protozoa, and either test solution containing the test compound at predefined concentration or DMSO without compound was added. Then medium was added to achieve 100 μL. The test solution was duplicated.
The culture plate was cultured in an incubator for 72 hours, and the proliferation inhibition activity was examined. The activity was determined as follows. To each well, 10 μL Alamar blue water solution was added, then the plate was again cultured for 2 hours. Then the culture plate was mounted on a fluorescence microplate reader (Spectramax Gemeni XS; Molecular Devices Corporation, U.S.), and irradiated with 536 nm excitation wavelength to determine fluorescence at 588 nm. The trypanosoma infection rate of the sample containing the test composition and that of the control sample was calculated.
Using the protozoa infection rate thus obtained, the proliferation inhibition rate was calculated according to the following equation to determine 50% proliferation inhibition concentration (EC50).
Proliferation inhibition rate(%)={1−(b−a)/(c−a)}×100
a: initial infection rate b: infection rate of the test compound solution c: infection rate of the control

[2] = system: Plasmodium berghei NK 65 strain; experiment: animal or person; format: in vivo; conditions: for Survival days (mean survival days, treatment group minus control group) / Recovery Rate (suppression): 4 days; for Recovery Rate (suppression): P. berghei infected ICR mice
[3] = system: Plasmodium Falciparum k1 strain; experiment: Chloroquine-resistant tropical malaria protozoa proliferation inhibition screening test; format: cell-based; conditions: for Selective toxicity: EC50 rat L6 cells / EC50 Chloroquine-resistant malaria protozoa; for EC50: Plasmodium falciparum
Summary of the method: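 Infected erythrocytes (0.15% initial infection, 2.5% hematocrit) in RPMI-1640 with 5% human serum were cultured 48 h at 37 °C under 3% O2/4% CO2 with compound, then 24 h with 0.5 μCi [3H]hypoxanthine.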

[4] = Plasmodium berghei, ip, 96 h, read-out: Recovery Rate (suppression)
[5] = dose 25 mg/kg/d intraperitoneally
[6] = chloroquine-resistant K1 strain, 3H-hypoxanthine uptake, read-out: EC50 P. falciparum K1
[7] = chloroquine-resistant K1 strain, 3H-hypoxanthine uptake

Structure (SMILES)	Selective toxicity [1]	EC50 [1]	inhibition in vivo at 10 mg/kg/day [2, 4]	inhibition in vivo at 25 mg/kg/day [2, 4]	Survival days (mean survival days, treatment group minus control group) [2, 5]	Selective toxicity [3]	EC50 [3, 6]	EC50 Trypanosoma brucei rhod. [1]	Recovery Rate (suppression) [2, 5]	EC50 P. falciparum K1 [3, 7]	other results
CCN1C(=O)/C(=C2\Sc3ccccc3N2C)S/C1=N\c1sc2cc(Cl)ccc2[n+]1C [Compound A-1]	94	0.403 µg/mL	54.1%	62.7%	2.0 days	255	0.148 µg/mL	–	–	–	–
CCN1C(=O)/C(=C2\C=Cc3ccccc3N2C)S/C1=N\c1sc2cc(Cl)ccc2[n+]1C [Compound A-2]	72	0.076 µg/mL	54.6%	–	–	2500	0.0022 µg/mL	–	–	–	–
CCN1C(=O)/C(=c2/s/c(=C3/C=CC=CN3C)c(=O)n2CC)S/C1=N\c1sc2cc(Cl)ccc2[n+]1C [Compound B-2]	258	0.104 µg/mL	79.8%	97.1%	19.3 days	4495	0.006 µg/mL	–	–	–	inhibition in vivo at 20 mg/kg/day [2, 4]: 97.4%; inhibition in vivo at 40 mg/kg/day [2, 4]: 99.1%
CCN1C(=O)/C(=c2/s/c(=C3/SCCN3C)c(=O)n2CC)S/C1=N\c1sc2cc(Cl)ccc2[n+]1C [Compound B-12]	50	0.138 µg/mL	–	88.4%	–	507	0.0136 µg/mL	–	–	–	–
CCN1C(=O)/C(=c2/s/c(=C3/C=CC=CN3C)c(=O)n2CC)S/C1=N\c1sc2cc(OC)ccc2[n+]1C [Compound B-28]	–	–	–	–	–	–	–	0.042 µg/mL	98.3%	0.007 µg/mL	–
CCN1C(=O)/C(=c2/s/c(=C3/SCCN3C)c(=O)n2CC)S/C1=N\c1sc2cc(OC)ccc2[n+]1C [Compound B-29]	–	–	–	–	–	–	–	0.023 µg/mL	95.0%	0.006 µg/mL	–
CCN1C(=O)/C(=c2/s/c(=C3/C=CC=CN3C)c(=O)n2CC)S/C1=N\c1sc2ccccc2[n+]1C [Compound B-30]	–	–	–	–	16.0 days	–	–	0.0625 µg/mL	96.4%	0.0119 µg/mL	Recovery Rate (suppression) ([2]; dose 10 mg/kg/d intraperitoneally): 70.8%; Recovery Rate (suppression) ([2]; dose 20 mg/kg/d intraperitoneally): 92.4%; Recovery Rate (suppression) ([2]; dose 40 mg/kg/d intraperitoneally): 97.8%
CCN1C(=O)/C(=c2/s/c(=C3/SCCN3C)c(=O)n2CC)S/C1=N\c1sc2cc(F)ccc2[n+]1C [Compound B-33]	–	–	–	–	8.7 days	–	–	0.1485 µg/mL	70.5%	0.0167 µg/mL	–
CCn1c(=O)/c(=C2\SCCN2C)s/c1=C1\S/C(=N\c2sc3cc(Cl)ccc3[n+]2C)N(C(C)C)C1=O [Compound B-37]	19	0.052 µg/mL	–	94.5%	–	160	0.009 µg/mL	–	–	–	–
CN1/C(=c2\s/c(=C\c3cccc[n+]3CCC(=O)O)n(CC3CO3)c2=O)Sc2ccccc21 (stereo not drawn) [Compound S-3, reference compound]	>15	6.1 µg/mL	–	–	–	>320	–	–	–	–	inhibition in vivo at 5 mg/kg/day [2, 4]: 29.8%; Survival days (mean survival days, treatment group minus control group) ([2]; dose 5.0 mg/kg/d intraperitoneally): 0 days; EC50 ([3]; K1, read-out: EC50 P. falciparum K1): 0.28 µg/mL
